# Measured values taken from patent US20100311109A1, “NON-CONTACT METHOD FOR Q[…] IN THE DYNAMICS OF MICROBIAL POPULATIONS” (priority 2009, published 2010).
# Test system: E. coli
# Experiment: Time-kill study of E. coli exposed to ciprofloxacin, measured by infrared thermography (Energy Number)
# Format: cell-based, Escherichia coli
# Details: starting inoculum approx. 2×10^6 CFU/ml, 37° C., 0-24 hours
# Procedure: It was desired to evaluate utility of the system in a real-time method to measure bacterial growth and death as a function of exposure to an antimicrobial. For that purpose, time-kill studies were performed using E. coli cultures, established substantially as set forth in Example 2. A series of microtiter plates were inoculated with an overnight culture of a representative gram-negative E. coli strain to achieve a starting inoculum of approximately 2×10^6 CFU/ml per well. Test wells were exposed to nine concentrations of an antimicrobial agent of a representative fluoroquinolone (ciprofloxacin) ranging from 0- to 32-fold minimum inhibitory concentration (MIC). […] of those treatments (0, […], 1, 2, 4, and 8-fold MIC) were subcultured for determination of viable cell counts. Control wells received no ciprofloxacin. […] Post-imaging, the contents of the designated wells were removed and the number of viable bacteria in each well was determined using drop and filter count methods.
# FIGS. 7a and 7b set forth the changes in bacterial viable counts and the Energy Number of the medium over time, respectively. The Energy Number of the medium over time as determined from thermodynamic modeling of the IR images collected by the detector was highly correlated (R^2=0.9891) to the viable counts obtained following 24 hr incubation (see FIG. 7c).
structure (smiles),measurement,setting,value
O=C(O)c1cn(C2CC2)c2cc(N3CCNCC3)c(F)cc2c1=O [ciprofloxacin],IRT time-kill result (Energy Number over time),highest (16.0 and 32.0-fold MIC) concentration,rapid bacterial killing
same,IRT time-kill result (Energy Number over time),lowest (0.125 and 0.25-fold MIC) concentration,net bacterial growth
